Data from ChEMBL document CHEMBL3044789, “Comparing weed and crop seedling response to pre-emergence pendimethalin application in Corchorus olitorius and Abelmoschus esculentus” (Crop Prot, 2006).

Tests used:
[1] = system: Euphorbia heterophylla; assay: Herbicidal activity against Euphorbia heterophylla in Abelmoschus esculentus plots assessed as weed recovery at 0.66 kg a.i/ha after 2 weeks (reference value: 60.1 +/- 0.46 %); assay type: functional
[2] = system: Cyperus rotundus; assay: Herbicidal activity against Cyperus rotundus form in Abelmoschus esculentus plots assessed as minor weed growth at 0.66 kg a.i/ha after 2 weeks; assay type: functional
[3] = system: Euphorbia heterophylla; assay: Herbicidal activity against Euphorbia heterophylla in Abelmoschus esculentus plots assessed as weed cover at 0.66 kg a.i/ha after 7 weeks (reference value: 14.7 +/- 0.46 %); assay type: functional
[4] = system: Abelmoschus esculentus; assay: Phytotoxicity in Abelmoschus esculentus assessed as root length at 0.66 kg a.i/ha treated to soil after 7 weeks (reference value: 2.9 +/- 0.45 mm); assay type: organism-based; settings: in vivo, other, 1176 h
[5] = system: Mimosa pudica; assay: Herbicidal activity against Mimosa pudica in Abelmoschus esculentus plots assessed as weed cover at 0.33 kg a.i/ha after 7 weeks (reference value: 14.7 +/- 0.46 %); assay type: functional
[6] = system: Ageratum conyzoides; assay: Herbicidal activity against Ageratum conyzoides in Abelmoschus esculentus plots assessed as major weed growth at 0.33 kg a.i/ha after 2 weeks; assay type: functional
[7] = system: Cyperus rotundus; assay: Herbicidal activity against Cyperus rotundus in Corchorus olitorius plots assessed as weed cover at 0.66 kg a.i/ha after 4 weeks (reference value: 20.1+/- 0.57 %); assay type: functional
[8] = system: Corchorus olitorius; assay: Phytotoxicity in Corchorus olitorius assessed as seed germination at 0.99 kg a.i/ha applied as solution after 7 weeks relative to untreated control; assay type: organism-based; settings: in vivo, other, 1176 h
[9] = system: Talinum fruticosum; assay: Herbicidal activity against Talinum fruticosum in Abelmoschus esculentus plots assessed as minor weed growth at 0.99 kg a.i/ha after 2 weeks; assay type: functional
[10] = system: Synedrella nodiflora; assay: Herbicidal activity against Synedrella nodiflora in Corchorus olitorius plots assessed as weed cover at 0.33 kg a.i/ha after 2 weeks (reference value: 81.7 +/- 0.43 %); assay type: functional
[11] = system: Cyperus rotundus; assay: Herbicidal activity against Cyperus rotundus in Corchorus olitorius plots assessed as weed cover at 0.66 kg a.i/ha after 7 weeks (reference value: 1.7 +/- 0.56 %); assay type: functional
[12] = system: Chromolaena odorata; assay: Herbicidal activity against Chromolaena odorata in Corchorus olitorius plots assessed as weed recovery at 0.33 kg a.i/ha after 2 weeks (reference value: 78.3 +/- 0.74 %); assay type: functional
[13] = system: Calopogonium mucunoides; assay: Herbicidal activity against Calopogonium mucunoides in Corchorus olitorius plots assessed as weed cover at 0.99 kg a.i/ha after 7 weeks (reference value: 1.7 +/- 0.56 %); assay type: functional
[14] = system: Corchorus olitorius; assay: Phytotoxicity in Corchorus olitorius assessed as shoot length at 0.66 kg a.i/ha applied as solution after 7 weeks (reference value: 22.9 +/- 0.8 mm); assay type: organism-based; settings: in vivo, other, 1176 h
[15] = system: Abelmoschus esculentus; assay: Phytotoxicity in Abelmoschus esculentus assessed as seed germination at 0.33 kg a.i/ha applied as solution after 7 weeks (reference value: 85.7 +/- 0.36 %); assay type: organism-based; settings: in vivo, other, 1176 h
[16] = system: Rottboellia cochinchinensis; assay: Herbicidal activity against Rottboellia cochinchinensis in Corchorus olitorius plots assessed as weed recovery at 0.33 kg a.i/ha after 2 weeks (reference value: 78.3 +/- 0.74 %); assay type: functional
[17] = system: Calopogonium mucunoides; assay: Herbicidal activity against Calopogonium mucunoides in Corchorus olitorius plots assessed as weed cover at 0.66 kg a.i/ha after 7 weeks (reference value: 1.7 +/- 0.56 %); assay type: functional
[18] = system: Corchorus olitorius; assay: Phytotoxicity in Corchorus olitorius assessed as shoot length at 0.33 kg a.i/ha applied as solution after 7 weeks (reference value: 22.9 +/- 0.8 mm); assay type: organism-based; settings: in vivo, other, 1176 h
[19] = system: Chromolaena odorata; assay: Herbicidal activity against Chromolaena odorata in Corchorus olitorius plots assessed as weed cover at 0.33 kg a.i/ha after 4 weeks (reference value: 20.1+/- 0.57 %); assay type: functional
[20] = system: Ageratum conyzoides; assay: Herbicidal activity against Ageratum conyzoides in Corchorus olitorius plots assessed as weed cover at 0.33 kg a.i/ha after 7 weeks (reference value: 1.7 +/- 0.56 %); assay type: functional
[21] = system: Talinum fruticosum; assay: Herbicidal activity against Talinum fruticosum in Corchorus olitorius plots assessed as minor weed growth at 0.99 kg a.i/ha after 2 weeks; assay type: functional
[22] = system: Synedrella nodiflora; assay: Herbicidal activity against Synedrella nodiflora in Abelmoschus esculentus plots assessed as weed cover at 0.33 kg a.i/ha after 7 weeks (reference value: 14.7 +/- 0.46 %); assay type: functional
[23] = system: Euphorbia heterophylla; assay: Herbicidal activity against Euphorbia heterophylla in Corchorus olitorius plots assessed as weed cover at 0.66 kg a.i/ha after 2 weeks (reference value: 81.7 +/- 0.43 %); assay type: functional
[24] = system: Synedrella nodiflora; assay: Herbicidal activity against Synedrella nodiflora in Abelmoschus esculentus plots assessed as weed cover at 0.33 kg a.i/ha after 4 weeks (reference value: 22.6 +/- 0.49 %); assay type: functional
[25] = system: Euphorbia heterophylla; assay: Herbicidal activity against Euphorbia heterophylla in Corchorus olitorius plots assessed as major weed growth at 0.66 kg a.i/ha after 2 weeks; assay type: functional
[26] = system: Asteraceae; assay: Herbicidal activity against Aspilia africana in Corchorus olitorius plots assessed as weed cover at 0.66 kg a.i/ha after 7 weeks (reference value: 1.7 +/- 0.56 %); assay type: functional
[27] = system: Commelina diffusa; assay: Herbicidal activity against Commelina diffusa in Corchorus olitorius plots assessed as weed recovery at 0.66 kg a.i/ha after 2 weeks (reference value: 78.3 +/- 0.74 %); assay type: functional
[28] = system: Calopogonium mucunoides; assay: Herbicidal activity against Calopogonium mucunoides in Abelmoschus esculentus plots assessed as weed recovery at 0.33 kg a.i/ha after 2 weeks (reference value: 60.1 +/- 0.46 %); assay type: functional
[29] = system: Euphorbia heterophylla; assay: Herbicidal activity against Euphorbia heterophylla in Abelmoschus esculentus plots assessed as weed cover at 1.32 kg a.i/ha after 2 weeks (reference value: 63.5 +/- 0.29 %); assay type: functional
[30] = system: Cyperus rotundus; assay: Herbicidal activity against Cyperus rotundus in Abelmoschus esculentus plots assessed as weed cover at 0.66 kg a.i/ha after 4 weeks (reference value: 22.6 +/- 0.49 %); assay type: functional
[31] = system: Asteraceae; assay: Herbicidal activity against Aspilia africana in Corchorus olitorius plots assessed as weed recovery at 0.66 kg a.i/ha after 2 weeks (reference value: 78.3 +/- 0.74 %); assay type: functional
[32] = system: Calopogonium mucunoides; assay: Herbicidal activity against Calopogonium mucunoides in Corchorus olitorius plots assessed as weed cover at 1.32 kg a.i/ha after 2 weeks (reference value: 81.7 +/- 0.43 %); assay type: functional
[33] = system: Euphorbia heterophylla; assay: Herbicidal activity against Euphorbia heterophylla in Abelmoschus esculentus plots assessed as weed recovery at 0.33 kg a.i/ha after 2 weeks (reference value: 60.1 +/- 0.46 %); assay type: functional
[34] = system: Euphorbia heterophylla; assay: Herbicidal activity against Euphorbia heterophylla in Abelmoschus esculentus plots assessed as weed cover at 0.99 kg a.i/ha after 4 weeks (reference value: 22.6 +/- 0.49 %); assay type: functional
[35] = system: Corchorus olitorius; assay: Phytotoxicity in Corchorus olitorius assessed as shoot length at 0.99 kg a.i/ha applied as solution after 7 weeks (reference value: 22.9 +/- 0.8 mm); assay type: organism-based; settings: in vivo, other, 1176 h
[36] = system: Talinum fruticosum; assay: Herbicidal activity against Talinum fruticosum in Abelmoschus esculentus plots assessed as weed recovery at 0.99 kg a.i/ha after 2 weeks (reference value: 60.1 +/- 0.46 %); assay type: functional

In the case of `CCC(CC)Nc1c([N+](=O)[O-])cc(C)c(C)c1[N+](=O)[O-]` [PENDIMETHALIN], the Activity [1] was 47.9%, the Activity [2] was 1 /m2 and the Activity [3] was 90%. For the same compound, the Activity [4] was 1.4 mm, the Activity [5] was 90% and the Activity [6] was 31 /m2. The Activity [7] was 63.3%, the Activity [8] was 72.7% and the Activity [9] was 1 /m2. For the same compound, the Activity [10] was 63.3%, the Activity [11] was 100% and the Activity [12] was 31.7%. It also gave an Activity [13] of 95%, an Activity [14] of 6 mm and an Activity [15] of 52.7%. It also gave an Activity [16] of 31.7%, an Activity [17] of 100% and an Activity [18] of 7 mm. For the same compound, the Activity [19] was 73.3%, the Activity [20] was 100% and the Activity [21] was 1 /m2. It also gave an Activity [22] of 90%, an Activity [23] of 51.7% and an Activity [24] of 53.8%. For the same compound, the Activity [25] was 31 /m2, the Activity [26] was 100% and the Activity [27] was 33.3%. For the same compound, the Activity [28] was 39.2%, the Activity [29] was 45% and the Activity [30] was 47.9%. For the same compound, the Activity [31] was 33.3%, the Activity [32] was 41.7% and the Activity [33] was 39.2%. It also gave an Activity [34] of 39.2%, an Activity [35] of 5.7 mm and an Activity [36] of 36.2%.
